molecular target: T1, PAD4 enzyme (Homo sapiens, UniProt Q9UM07); test: In-vitro measurement for enzymatic PAD4 citrullination inhibition activity (ammonia release); assay type: biochemical; settings: direct comparison of prior art and selenium containing compounds; read-out: IC50 for enzymatic PAD4 citrullination inhibition
T1 construct: PAD4 enzyme was diluted to 30 nM in Assay Buffer
Experimental: Citrullination was detected via ammonia release based on published methodology (Nature Chemical Biology, 2015, 11: 189-191).
PAD4 enzyme was diluted to 30 nM in Assay Buffer (100 mM HEPES, 50 mM NaCl, 2 mM DTT, 0.6 mg/ml BSA, pH 8) and added to wells containing various concentrations of compound or DMSO vehicle (0.8% final) in a high-volume black 96-well plate (Greiner). Following a 60-min preincubation at 27° C., the reaction was initiated by the addition of substrate (3 mM BAEE in 100 mM HEPES, 50 mM NaCl, […] CaCl2, 2 mM DTT, pH 8). The reaction was stopped after 90 min by the addition of stop/detection buffer containing 50 mM EDTA, 2.6 mM o-phthalaldehyde and 2.6 mM DTT. Assays were incubated at 27° C. for 120 min before measuring fluorescence (λex 410/λem 476) on an Envision plate reader (PerkinElmer). After which IC50 values were calculated using GraphPad Prism 8.0.

T1 sequence (Q9UM07 whole entry): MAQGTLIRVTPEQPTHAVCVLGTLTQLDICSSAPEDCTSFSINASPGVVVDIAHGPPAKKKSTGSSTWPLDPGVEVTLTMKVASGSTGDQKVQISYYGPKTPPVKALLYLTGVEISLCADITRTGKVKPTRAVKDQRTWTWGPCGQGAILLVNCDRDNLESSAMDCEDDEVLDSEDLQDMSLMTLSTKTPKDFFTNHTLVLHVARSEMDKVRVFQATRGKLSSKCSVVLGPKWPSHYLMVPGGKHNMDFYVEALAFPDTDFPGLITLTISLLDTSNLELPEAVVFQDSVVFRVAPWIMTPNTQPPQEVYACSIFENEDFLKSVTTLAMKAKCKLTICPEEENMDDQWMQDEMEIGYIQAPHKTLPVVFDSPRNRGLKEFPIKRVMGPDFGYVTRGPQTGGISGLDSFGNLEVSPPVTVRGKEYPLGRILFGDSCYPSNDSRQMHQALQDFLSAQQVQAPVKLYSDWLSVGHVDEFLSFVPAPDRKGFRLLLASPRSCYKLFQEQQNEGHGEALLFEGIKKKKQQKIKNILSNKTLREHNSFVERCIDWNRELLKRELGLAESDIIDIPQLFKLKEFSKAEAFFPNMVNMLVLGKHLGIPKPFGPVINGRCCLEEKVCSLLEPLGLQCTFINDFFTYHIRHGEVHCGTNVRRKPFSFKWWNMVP

Compound | IC50 [nM]
COc1cc(C(=O)N2CCC[C@@H](N)C2)cc2nc(-c3cc4[se]c(C5CC5)nc4n3CC3CC3)n(C)c12 [HH-4] | 22.4
COc1cc(C(=O)N2C[C@H]3CC[C@@H]2[C@@H]3N)cc2nc(-c3cc4sc(C)cc4n3CC3CC3)n(C)c12 [Cpd-27, reference compound] | 272
COc1cc(C(=O)N2C[C@H]3CC[C@@H]2[C@@H]3N)cc2nc(-c3cc4[se]c(C)cc4n3CC3CC3)n(C)c12 [HH-52] | 25.1
COc1cc(C(=O)N2CCC[C@@H](N)C2)cc2nc(-c3cc4sc(C5CC5)nc4n3CC3CC3)n(C)c12 [Cpd-118, reference compound] | 66.8

same assay, conditions: read-out: IC50 of inhibition enzymatic activity of PAD4 (Colorimetric assays, Nature Chemical Biology, 2015, 11: 189-191)

Compound | IC50 [nM]
COc1cc(C(=O)N2C[C@H](N)CC[C@@H]2C)cc2nc(-c3cc4[se]c(C)nc4n3CC(F)(F)F)n(C)c12 [HH-23] | 100 to 500
COc1cc(C(=O)N2CCC[C@@H](N)C2)cc2nc(-c3cc4[se]c(C)nc4n3CC3CCC3)n(C)c12 [HH-17] | ≤ 50
COc1cc(C(=O)N2C[C@H](N)CC[C@@H]2C)cc2nc(-c3cc4[se]c(C5CCCN5)cc4n3CC3CC3)n(C)c12 (some centres unmarked) [HH-54] | 50 to 100
Cc1c(-c2cc3[se]c(-c4ccccn4)nc3n2CC2CC2)nn2cc(C(=O)N3C[C@H]4CC[C@@H]3[C@@H]4N)ccc12 [HH-72] | 100 to 500
COc1cc(C(=O)N2CC[C@@H](F)[C@@H](N)C2)cc2nc(-c3cc4[se]c(C)nc4n3CC3CC3)n(C)c12 [HH-14] | 100 to 500
COc1cc(C(=O)N2C[C@H](N)CC[C@@H]2C)cc2nc(-c3cc4[se]c(-c5ccc(C)cc5)nc4n3CC3CC3)n(C)c12 [HH-45] | > 500
Cc1c(-c2cc3[se]c(-c4ccccn4)nc3n2CC2CC2)nn2cc(C(=O)N3C[C@H](N)C[C@@H](F)C3)ccc12 [HH-71] | 100 to 500
COc1cc(C(=O)N2C[C@H](N)C[C@@H](F)C2)cc2nc(-c3cc4[se]c(-c5ccncc5)nc4n3CC3CC3)n(C)c12 [HH-42] | 100 to 500
COc1cc(C(=O)N2C[C@H]3CC[C@@H]2[C@@H]3N)cc2nc(-c3cc4[se]c(C5CCNCC5)nc4n3CC3CC3)n(C)c12 [HH-37] | 100 to 500
COc1cc(C(=O)N2CCC[C@@H](N)C2)cc2nc(-c3cc4[se]c(C)cc4n3CC3CC3)n(C)c12 [HH-50] | 50 to 100
COc1cc(C(=O)N[C@@H]2CC[C@H](C)NC2)cc2nc(-c3cc4cc[se]c4n3CC3CC3)n(C)c12 [HH-66] | 100 to 500
COc1cc(C(=O)N2C[C@H](N)CC[C@@H]2C)cc2nc(-c3cc4[se]ccc4n3CC3CC3)n(C)c12 [HH-48] | 100 to 500
COc1cc(C(=O)N2C[C@H](N)CC(F)(F)C2)cc2nc(-c3cc4[se]c(C)nc4n3CC3CC3)n(C)c12 [HH-13] | > 500
COc1cc(C(=O)N2CCC[C@@H](N)C2)cc2nc(-c3cc4[se]c(C5CC5)nc4n3CC3CC3)n(C)c12 [HH-4] | ≤ 50
COc1cc(C(=O)N2C[C@H](N)CC[C@@H]2C)cc2nc(-c3cc4[se]c(C)nc4n3Cc3ccoc3)n(C)c12 [HH-32] | 100 to 500
COc1cc(C(=O)N2C[C@H](N)C[C@@H](F)C2)cc2nc(-c3cc4[se]c(C5CCNCC5)nc4n3CC3CC3)n(C)c12 [HH-36] | 100 to 500
COc1cc(C(=O)N2C[C@H](N)C[C@@H](F)C2)cc2nc(-c3cc4[se]c(C)nc4n3CC3CC3)n(C)c12 [HH-10] | ≤ 50
CCn1c(-c2nc3cc(C(=O)N4C[C@H]5CC[C@@H]4[C@@H]5N)cc(OC)c3n2C)cc2[se]c(C)nc21 [HH-20] | 100 to 500
COc1ccccc1-c1cc2c(cc(-c3nc4cc(C(=O)N5C[C@H](N)CC[C@@H]5C)cc(OC)c4n3C)n2CC2CC2)[se]1 [HH-59] | ≤ 50
Cc1nc2c(cc(-c3nc4cc(C(=O)N5C[C@H]6CC[C@@H]5[C@@H]6N)ccn4c3C)n2CC2CC2)[se]1 [HH-74] | 50 to 100

Compound | IC50 [nM]
CCc1nc2c(cc(-c3nc4cc(C(=O)N5C[C@H]6CC[C@@H]5[C@@H]6N)cc(OC)c4n3C)n2CC2CC2)[se]1 [HH-1] | ≤ 50
CCn1c(-c2nc3cc(C(=O)N4C[C@H](N)CC[C@@H]4C)cc(OC)c3n2C)cc2[se]c(C)nc21 [HH-19] | 100 to 500
COc1cc(C(=O)N2C[C@H](N)CC[C@@H]2C)cc2nc(-c3cc4[se]c(C5CC5)nc4n3CC3CC3)n(C)c12 [HH-6] | ≤ 50
COc1cc(C(=O)N2C[C@H]3CC[C@@H]2[C@@H]3N)cn2nc(-c3cc4[se]c(C)nc4n3CC3CC3)c(C)c12 [HH-68] | 50 to 100
COc1cc(C(=O)N2CC[C@@H](O)[C@@H](N)C2)cc2nc(-c3cc4[se]c(C)nc4n3CC3CC3)n(C)c12 [HH-11] | 100 to 500
Cc1nc2c(cc(-c3nc4cc(C(=O)N5C[C@H](N)C[C@@H](F)C5)ccn4c3C)n2CC2CC2)[se]1 [HH-73] | 50 to 100
COc1cc(C(=O)N2C[C@H]3CC[C@@H]2[C@@H]3N)cc2nc(-c3cc4[se]c(C5CC5)nc4n3CC3CC3)n(C)c12 [HH-7] | ≤ 50
COc1cc(C(=O)N2C[C@H](N)CC[C@@H]2C)cc2nc(-c3cc4cc[se]c4n3CC3CC3)n(C)c12 [HH-65] | 50 to 100
COc1cc(C(=O)N2C[C@H]3CC[C@@H]2[C@@H]3N)cc2nc(-c3cc4[se]c(-c5ccc(C)cc5)cc4n3CC3CC3)n(C)c12 [HH-56] | 100 to 500
COc1cc(C(=O)N2C[C@H]3CC[C@@H]2[C@@H]3N)cc2nc(-c3cc4[se]c(C)nc4n3CC3CCC3)n(C)c12 [HH-16] | ≤ 50
COc1cc(C(=O)N2C[C@H](N)C[C@@H](F)C2)cc2nc(-c3cc4[se]c(C)nc4n3CC3CCC3)n(C)c12 [HH-18] | ≤ 50
COc1cc(C(=O)N2C[C@H](N)CC[C@@H]2C)cc2nc(-c3cc4[se]c(C5CCNCC5)nc4n3CC3CC3)n(C)c12 [HH-35] | 50 to 100
COc1cc(C(=O)N2C[C@H](N)CC[C@@H]2C)cc2nc(-c3cc4[se]c(C)nc4n3Cc3ccncc3)n(C)c12 [HH-29] | 100 to 500
COc1cc(C(=O)N2C[C@H]3CC[C@@H]2[C@@H]3N)cc2nc(-c3cc4[se]c(C)cc4n3CC3CC3)n(C)c12 [HH-52] | ≤ 50
COc1cc(C(=O)N2C[C@H](N)C[C@@H](F)C2)cc2nc(-c3cc4[se]c(C)cc4n3CC3CC3)n(C)c12 [HH-51] | ≤ 50
Cc1nc2c(cc(-c3nc4cc(C(=O)N5C[C@H](N)CC[C@@H]5C)ccn4c3C)n2CC2CC2)[se]1 [HH-75] | ≤ 50
COc1cc(C(=O)N2C[C@H](N)CC[C@@H]2C)cn2nc(-c3cc4[se]c(C)nc4n3CC3CC3)c(C)c12 [HH-67] | 100 to 500
COc1cc(C(=O)N2C[C@H](N)C[C@@H](F)C2)cc2nc(-c3cc4[se]c(-c5ccccn5)cc4n3CC3CC3)n(C)c12 [HH-63] | 100 to 500
COc1cc(C(=O)N2C[C@H]3CC[C@@H]2[C@@H]3N)cc2nc(-c3cc4[se]c(-c5cccc(C)c5)cc4n3CC3CC3)n(C)c12 [HH-57] | 100 to 500
COc1cccc(Cn2c(-c3nc4cc(C(=O)N5C[C@H](N)CC[C@@H]5C)cc(OC)c4n3C)cc3[se]c(C)nc32)c1 [HH-27] | 100 to 500

Compound | IC50 [nM]
COc1ccccc1Cn1c(-c2nc3cc(C(=O)N4C[C@H](N)CC[C@@H]4C)cc(OC)c3n2C)cc2[se]c(C)nc21 [HH-26] | 100 to 500
COc1cc(C(=O)N2C[C@H](N)CC[C@@H]2C)cc2nc(-c3cc4[se]c(-c5ccncc5)nc4n3CC3CC3)n(C)c12 [HH-41] | 100 to 500
COc1cc(C(=O)N2C[C@H]3CC[C@@H]2[C@@H]3N)cc2nc(-c3cc4[se]c(C)nc4n3Cc3ccncc3)n(C)c12 [HH-30] | 100 to 500
COc1cc(C(=O)N2C[C@H](N)C[C@@H](F)C2)cc2nc(-c3cc4[se]ccc4n3CC3CC3)n(C)c12 [HH-47] | 50 to 100
CCn1c(-c2nc3cc(C(=O)N4C[C@H](N)C[C@@H](F)C4)cc(OC)c3n2C)cc2[se]c(C)nc21 [HH-21] | 100 to 500
COc1ccccc1-c1nc2c(cc(-c3nc4cc(C(=O)N5C[C@H](N)CC[C@@H]5C)cc(OC)c4n3C)n2CC2CC2)[se]1 [HH-38] | 100 to 500
CCc1nc2c(cc(-c3nc4cc(C(=O)N5C[C@H](N)C[C@@H](F)C5)cc(OC)c4n3C)n2CC2CC2)[se]1 [HH-3] | ≤ 50
COc1cc(C(=O)N2C[C@H](N)CC[C@@H]2C)cc2nc(-c3cc4[se]c(C)nc4n3Cc3ccccn3)n(C)c12 [HH-31] | 100 to 500
COc1cc(C(=O)N2C[C@H]3CC[C@@H]2[C@@H]3N)cc2nc(-c3cc4[se]c(-c5ccccn5)cc4n3CC3CC3)n(C)c12 [HH-61] | 100 to 500
COc1cc(C(=O)N2C[C@H](N)C[C@@H](F)C2)cc2nc(-c3cc4cc[se]c4n3CC3CC3)n(C)c12 [HH-64] | 50 to 100
Cc1c(-c2cc3[se]c(-c4ccccn4)nc3n2CC2CC2)nn2cc(C(=O)N3C[C@H](N)CC[C@@H]3C)ccc12 [HH-70] | 100 to 500
COc1cc(C(=O)N2C[C@H](N)C[C@@H](F)C2)cc2nc(-c3cc4[se]c(C5CCCN5)cc4n3CC3CC3)n(C)c12 (some centres unmarked) [HH-53] | 50 to 100
COc1cc(C(=O)N2C[C@H](N)CC[C@@H]2C)cc2nc(-c3cc4[se]c(C)nc4n3Cc3ccsc3)n(C)c12 [HH-34] | 50 to 100
COc1ccc(-c2cc3c(cc(-c4nc5cc(C(=O)N6C[C@H]7CC[C@@H]6[C@@H]7N)cc(OC)c5n4C)n3CC3CC3)[se]2)cc1 [HH-58] | 100 to 500
COc1ccccc1-c1cc2c(cc(-c3nc4cc(C(=O)N5C[C@H](N)C[C@@H](F)C5)cc(OC)c4n3C)n2CC2CC2)[se]1 [HH-60] | 100 to 500
COc1cc(C(=O)N2C[C@H](N)CC[C@@H]2C)cc2nc(-c3cc4[se]c(C)cc4n3CC3CC3)n(C)c12 [HH-49] | ≤ 50
COc1cc(C(=O)N2CCC[C@@H](N)C2)cc2nc(-c3cc4[se]c(C)nc4n3CC3CC3)n(C)c12 [HH-12] | ≤ 50
COc1cc(C(=O)N2C[C@H]3CC[C@@H]2[C@@H]3N)cc2nc(-c3cc4[se]c(C5CCCN5)cc4n3CC3CC3)n(C)c12 (some centres unmarked) [HH-55] | 100 to 500

Reference: patent US20260193272A1, “SELENIUM CONTAINING HETEROCYCLE COMPOUNDS AND USE THEREOF” (HELIOS HUAMING BIOPHARMA CO., LTD., priority 2022, published 2026)
